The record followed here is patent US8809321B2, “Diaryl ether linked pyrrolo [2,1-c][1,4] benzodiazepine hybrids and process for the preparation thereof” (Council of Scientific and Industrial Research, priority 2011, dated 2014).

The test system of assay [1] is duplex-form calf thymus DNA (CT-DNA). In words: Thermal denaturation studies with calf thymus DNA (DNA binding affinity). The settings on record: [PBD]:[DNA] molar ratio 1:5, CT-DNA 100 μM, ligand 20 μM, sodium phosphate buffer pH 7.00; for (ΔTm ° C.) after incubation at 37° C. for 0 h: 0 h at 37° C.; for (ΔTm ° C.) after incubation at 37° C. for 18 h: 18 h at 37° C. Here is the method: DNA Binding Affinity of Diaryl Ether Linked PBD Hybrids: Compounds have been subjected to thermal denaturation studies with duplex-form calf thymus DNA (CT-DNA) using a modification of a reported procedure (Newman, M. S. Carcinog-compr. Surv. 1976, 1, 203; ([…].; Loy, M.; Hoffman, Carcinog-compr. […] The DNA-PBD solutions have been incubated at 37° C. for 0 and 18 h prior to analysis. […] DNA helix→coil transition temperatures (Tm) have been obtained from the maxima in the d(A260)/dT derivative plots. […] The DNA binding activity for these novel C8-linked diaryl ether PBD hybrids has been examined by thermal denaturation studies using calf thymus (CT) DNA. […] The data for the compounds are included in Table 1 for comparison.

In assay [2] the test system is ZR-751 breast cancer cell line. The assay is described as follows: MTT assay, 48 h continuous drug exposure, ZR-751. Type of assay: cell-based, human. As to conditions: breast cancer cell line; 48 h exposure; MTT; read-out: GI50 ZR-751. As to the method:
(§1) For each compound, dose response curves for each cell line were measured at a minimum of five concentrations at 10 fold dilutions. A protocol of 48 h continuous drug exposure was used and a MTT assay was used to estimate cell viability or growth. The percent of cell growth (GI50) compared with the control was calculated.

In assay [3] the test system is A549 lung cancer cell line. The assay is described as follows: MTT assay, 48 h continuous drug exposure, A549. It counts as cell-based, human. As to conditions: 48 h exposure. Here is the method: (§2) Some of the C8-linked diaryl ether-PBD hybrids have been tested against eleven human tumour cell lines derived from seven cancer types (lung cancer, colon cancer, cervix, ovarian cancer, oral cancer, prostate cancer and breast cancer) as per Tata protocol as shown in Table 2. For each compound, dose response curves for each cell line were measured at a minimum of five concentrations at 10 fold dilutions. A protocol of 48 h continuous drug exposure was used and a MTT assay was used to estimate cell viability or growth. The percent of cell growth (GI50) compared with the control was calculated. Some of the compounds have been evaluated for their in vitro cytotoxicity in eleven cell lines from seven human cancer types. The results are expressed as GI50 determined relative to that of untreated control cells (Table-2).

Assay [4] deals with A2780 ovarian cancer cell line. The assay is described as follows: MTT assay, 48 h continuous drug exposure, A2780. Type of assay: cell-based, human. The settings on record: ovarian cancer cell line; 48 h exposure; MTT; read-out: GI50 A2780. Here is the method:
as §1
For orientation: Tetrazolium assays rely on reduction of a dye to a coloured formazan, in cell work by metabolically active cells.

Assay [5] has as its system Hop62 lung cancer cell line. The assay is described as follows: MTT assay, 48 h continuous drug exposure, Hop62. Type of assay: cell-based, human. The settings on record: lung cancer cell line; 48 h exposure; MTT; read-out: GI50 Hop62. As to the method: as §1
Assay [6] concerns SiHa Cervix cancer cell line. In words: MTT assay, 48 h continuous drug exposure, SiHa. Type of assay: cell-based, human. The settings on record: Cervix cancer cell line; 48 h exposure; MTT; read-out: GI50 SiHa. As to the method:
as §1

In assay [7] the test system is Gurav oral cancer cell line. The assay is described as follows: MTT assay, 48 h continuous drug exposure, Gurav. It counts as cell-based, human. As to conditions: oral cancer cell line; 48 h exposure; MTT; read-out: GI50 Gurav. As to the method:
as §1

Assay [8] concerns MCF7 breast cancer cell line. In words: MTT assay, 48 h continuous drug exposure, MCF7. The settings on record: 48 h exposure. It counts as cell-based, human. As to the method:
as §2

Assay [9] concerns Colo205 colon cancer cell line. The assay is described as follows: MTT assay, 48 h continuous drug exposure, Colo205. Type of assay: cell-based, human. As to conditions: 48 h exposure. As to the method:
as §2

Assay [10] concerns DWD oral cancer cell line. The assay is described as follows: MTT assay, 48 h continuous drug exposure, DWD. As to conditions: oral cancer cell line; 48 h exposure; MTT; read-out: GI50 DWD. Type of assay: cell-based, human. Here is the method:
as §1

The subject of assay [11] is PC3 prostrate cancer cell line. In words: MTT assay, 48 h continuous drug exposure, PC3. Type of assay: cell-based, human. The settings on record: prostrate cancer cell line; 48 h exposure; MTT; read-out: GI50 PC3. Here is the method:
as §1

The term GI50 denotes the concentration that inhibits growth by half. Regarding `COc1ccc(Oc2ccc(OCCCCCOc3cc4c(cc3OC)C(=O)N3CCC[C@H]3C=N4)cc2[N+](=O)[O-])cc1OC` [20c, 7-Methoxy-(8-3-[4-(3,4-dimethoxyphenoxy)-3-nitrophenoxy]pentyloxy)-(11aS)-1,2,3,11a-tetrahydro-5H-pyrrolo[2,1-c][1,4]benzodiazepin-5-one], the “(ΔTm ° C.) after incubation at 37° C. for 0 h” value in assay [1] is 4.9 °C. Also, in assay [1], the “(ΔTm ° C.) after incubation at 37° C. for 18 h” value was 5.6 °C. Further, the 50% growth inhibitory concentration (GI50) stood at 130 nM in assay [2]; 150 nM in assay [3]; 140 nM in assay [4]; 140 nM in assay [5]; 2470 nM in assay [6]; 1240 nM in assay [7]. For the same compound, the GI50 was determined as 140 nM in assay [8], 130 nM in [9], 130 nM in assay [10] and 160 nM in assay [11].

Take `COc1ccc(Oc2cccc(OCCCCCOc3cc4c(cc3OC)C(=O)N3CCC[C@H]3C=N4)c2[N+](=O)[O-])cc1OC` [20g, 7-Methoxy-(8-3-[3-(3,4-dimethoxyphenoxy)-2-nitrophenoxy]pentyloxy)-(11aS)-1,2,3,11a-tetrahydro-5H-pyrrolo[2,1-c][1,4]benzodiazepin-5-one]: in assay [1], the “(ΔTm ° C.) after incubation at 37° C. for 0 h” value came out at 4.5 °C. In assay [1], the “(ΔTm ° C.) after incubation at 37° C. for 18 h” value was 6.0 °C. In addition, the GI50 in assay [2] came to 190 nM; in assay [3], 190 nM; in [4] it was 2000 nM; in [5] it was 190 nM; in [6], 2500 nM; in assay [7] it was 160 nM. Further, the GI50 in [8] was 2100 nM; in [9], 170 nM; in assay [10], 180 nM; in [11] it was 2250 nM.

As to `COc1cc2c(cc1OCCCCCOc1ccc(Oc3cc(OC)c(OC)c(OC)c3)c([N+](=O)[O-])c1)N=C[C@@H]1CCCN1C2=O` [21c, 7-Methoxy-(8-3-[4-(3,4,5-timethoxyphenoxy)-3-nitrophenoxy]pentyloxy)-(11aS)-1,2,3,11a-tetrahydro-5H-pyrrolo[2,1-c][1,4]benzodiazepin-5-one], in [1], the “(ΔTm ° C.) after incubation at 37° C. for 0 h” value came out at 3.9 °C. The “(ΔTm ° C.) after incubation at 37° C. for 18 h” value in assay [1] was determined as 5.1 °C. Moreover, the concentration for 50% growth inhibition (GI50) turned out to be 1600 nM in assay [2]; 2500 nM in assay [3]; 1560 nM in assay [4]; 3100 nM in assay [5]; 1260 nM in assay [6]; 2860 nM in [7]. The GI50 in assay [8] was found to be 1850 nM; in [9], 2510 nM; in assay [10], 2130 nM; in assay [11] it was 1580 nM.

For `COc1cc2c(cc1OCCCCCOc1cccc(Oc3cc(OC)c(OC)c(OC)c3)c1[N+](=O)[O-])N=C[C@@H]1CCCN1C2=O` [21g, 7-Methoxy-(8-3-[3-(3,4,5-trimethoxyphenoxy)-2-nitrophenoxy]pentyloxy)-(11aS)-1,2,3,11a-tetrahydro-5H-pyrrolo[2,1-c][1,4]benzodiazepin-5-one], the “(ΔTm ° C.) after incubation at 37° C. for 0 h” value in [1] was 4.9 °C. The “(ΔTm ° C.) after incubation at 37° C. for 18 h” value in [1] worked out at 6.2 °C. In addition, the GI50 in assay [2] turned out to be 180 nM; in assay [3], 2020 nM; in [4], 2100 nM; in assay [5], 2130 nM; in [6], 2210 nM; in [7], 160 nM. Moreover, the GI50 was found to be 2300 nM in [8], 170 nM in assay [9], 170 nM in assay [10] and 190 nM in [11].

In the case of `COc1ccc(Oc2ccc(C(=O)N3CCN(CCCCCOc4cc5c(cc4OC)C(=O)N4CCC[C@H]4C=N5)CC3)cc2N)cc1` [22c], the “(ΔTm ° C.) after incubation at 37° C. for 0 h” value in [1] was 3.1 °C. Also, the “(ΔTm ° C.) after incubation at 37° C. for 18 h” value in assay [1] worked out at 4.2 °C. The GI50 was 190 nM in assay [2]; 180 nM in assay [3]; 190 nM in assay [4]; 2300 nM in assay [5]; 3250 nM in [6]; 160 nM in assay [7]. Moreover, the GI50 was determined as 170 nM in assay [8], 170 nM in assay [9], 180 nM in [10] and 190 nM in assay [11].
